Test results taken from ChEMBL document CHEMBL5143515, “Identification of new halogen-containing 2,4-diphenyl indenopyridin-5-one derivative as a boosting agent for the anticancer responses of clinically available topoisomerase inhibitors” (Eur J Med Chem, 2022).

Assays:
HeLa = experiment: Antiproliferative activity against human HeLa cells after 72 hrs by EZ-Cytox colorimetric assay; format: functional, cell-based
[1] = Genotoxicity in human HCT-15 cells assessed as production of Ub1-gamma-H2AX at 100 nM and measured by western blot analysis; format: toxicity, cell-based; conditions: hct-15, 0.1 µM
[2] = Genotoxicity in human HCT-15 cells assessed as production of gamma-H2AX at 1 nM and measured by western blot analysis; format: toxicity, cell-based; conditions: hct-15, 0.001 µM
DU-145 = experiment: Antiproliferative activity against human DU-145 cells after 72 hrs by EZ-Cytox colorimetric assay; format: functional, cell-based; conditions: DU-145, 72 h
[3] = Genotoxicity in human HCT-15 cells assessed as production of fragmented DNA tails at 1 nM and measured by comet assay; format: toxicity, cell-based; conditions: hct-15, 0.001 µM
T47D = experiment: Antiproliferative activity against human T47D cells after 72 hrs by EZ-Cytox colorimetric assay; format: functional, cell-based
[4] = Genotoxicity in human HCT-15 cells assessed as production of Ub1-gamma-H2AX at 1 nM and measured by western blot analysis; format: toxicity, cell-based; conditions: hct-15, 0.001 µM
[5] = Genotoxicity in human HCT-15 cells assessed as production of fragmented DNA tails at 100 nM and measured by comet assay; format: toxicity, cell-based; conditions: hct-15, 0.1 µM
[6] = Genotoxicity in human HCT-15 cells assessed as production of gamma-H2AX at 100 nM and measured by western blot analysis; format: toxicity, cell-based; conditions: hct-15, 0.1 µM
[7] = biological target: DNA topoisomerase 2-alpha (Homo sapiens) (UniProt P11388); experiment: Inhibition of recombinant human topoisomerase 2alpha assessed as relaxation of supercoiled plasmid pBR322 DNA at 100 uM by agarose gel electrophoresis relative to control
Sequence of DNA topoisomerase 2-alpha (Homo sapiens) (P11388 whole entry): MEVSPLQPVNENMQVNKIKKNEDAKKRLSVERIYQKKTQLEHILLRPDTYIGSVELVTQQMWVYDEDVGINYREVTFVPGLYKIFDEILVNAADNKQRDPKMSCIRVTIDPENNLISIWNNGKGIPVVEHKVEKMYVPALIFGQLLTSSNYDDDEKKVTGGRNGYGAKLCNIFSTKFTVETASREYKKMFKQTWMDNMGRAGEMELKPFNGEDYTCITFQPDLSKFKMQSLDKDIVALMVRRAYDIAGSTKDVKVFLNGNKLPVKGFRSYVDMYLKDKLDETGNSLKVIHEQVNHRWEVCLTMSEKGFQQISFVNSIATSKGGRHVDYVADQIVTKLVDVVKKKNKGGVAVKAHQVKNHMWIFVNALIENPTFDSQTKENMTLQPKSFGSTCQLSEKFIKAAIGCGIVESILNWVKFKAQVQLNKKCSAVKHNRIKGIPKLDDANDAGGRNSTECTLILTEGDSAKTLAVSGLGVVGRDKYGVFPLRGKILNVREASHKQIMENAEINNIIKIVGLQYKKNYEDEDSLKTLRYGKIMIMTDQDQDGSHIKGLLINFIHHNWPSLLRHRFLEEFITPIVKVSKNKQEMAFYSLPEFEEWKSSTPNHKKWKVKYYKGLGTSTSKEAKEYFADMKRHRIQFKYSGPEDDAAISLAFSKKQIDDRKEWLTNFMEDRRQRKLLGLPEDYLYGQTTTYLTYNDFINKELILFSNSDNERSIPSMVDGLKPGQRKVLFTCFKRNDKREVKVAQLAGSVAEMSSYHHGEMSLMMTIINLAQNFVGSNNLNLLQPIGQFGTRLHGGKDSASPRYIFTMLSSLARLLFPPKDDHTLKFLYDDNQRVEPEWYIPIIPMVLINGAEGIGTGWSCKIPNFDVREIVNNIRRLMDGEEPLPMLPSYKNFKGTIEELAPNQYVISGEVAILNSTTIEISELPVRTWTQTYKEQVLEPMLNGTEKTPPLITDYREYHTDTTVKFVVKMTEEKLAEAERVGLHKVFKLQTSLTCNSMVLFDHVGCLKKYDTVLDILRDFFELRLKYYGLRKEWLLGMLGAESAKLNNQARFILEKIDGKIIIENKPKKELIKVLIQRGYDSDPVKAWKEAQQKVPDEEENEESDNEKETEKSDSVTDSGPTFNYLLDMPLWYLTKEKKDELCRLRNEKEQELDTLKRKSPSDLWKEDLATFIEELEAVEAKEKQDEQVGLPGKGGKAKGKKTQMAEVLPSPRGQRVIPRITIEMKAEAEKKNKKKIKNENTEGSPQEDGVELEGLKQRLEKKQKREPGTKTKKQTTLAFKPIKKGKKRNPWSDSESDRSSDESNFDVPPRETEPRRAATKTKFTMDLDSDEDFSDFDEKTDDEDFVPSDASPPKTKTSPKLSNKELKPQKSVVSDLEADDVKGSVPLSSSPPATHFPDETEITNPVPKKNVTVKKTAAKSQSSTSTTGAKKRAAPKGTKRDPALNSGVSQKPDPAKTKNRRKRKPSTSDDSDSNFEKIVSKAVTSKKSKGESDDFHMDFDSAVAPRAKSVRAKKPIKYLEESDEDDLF

[8] = biological target: T1, DNA topoisomerase 1 (Homo sapiens) (UniProt P11387); experiment: Inhibition of recombinant human topoisomerase 1 assessed as relaxation of supercoiled plasmid pBR322 DNA at 100 uM by agarose gel electrophoresis relative to control
T1 sequence (whole entry): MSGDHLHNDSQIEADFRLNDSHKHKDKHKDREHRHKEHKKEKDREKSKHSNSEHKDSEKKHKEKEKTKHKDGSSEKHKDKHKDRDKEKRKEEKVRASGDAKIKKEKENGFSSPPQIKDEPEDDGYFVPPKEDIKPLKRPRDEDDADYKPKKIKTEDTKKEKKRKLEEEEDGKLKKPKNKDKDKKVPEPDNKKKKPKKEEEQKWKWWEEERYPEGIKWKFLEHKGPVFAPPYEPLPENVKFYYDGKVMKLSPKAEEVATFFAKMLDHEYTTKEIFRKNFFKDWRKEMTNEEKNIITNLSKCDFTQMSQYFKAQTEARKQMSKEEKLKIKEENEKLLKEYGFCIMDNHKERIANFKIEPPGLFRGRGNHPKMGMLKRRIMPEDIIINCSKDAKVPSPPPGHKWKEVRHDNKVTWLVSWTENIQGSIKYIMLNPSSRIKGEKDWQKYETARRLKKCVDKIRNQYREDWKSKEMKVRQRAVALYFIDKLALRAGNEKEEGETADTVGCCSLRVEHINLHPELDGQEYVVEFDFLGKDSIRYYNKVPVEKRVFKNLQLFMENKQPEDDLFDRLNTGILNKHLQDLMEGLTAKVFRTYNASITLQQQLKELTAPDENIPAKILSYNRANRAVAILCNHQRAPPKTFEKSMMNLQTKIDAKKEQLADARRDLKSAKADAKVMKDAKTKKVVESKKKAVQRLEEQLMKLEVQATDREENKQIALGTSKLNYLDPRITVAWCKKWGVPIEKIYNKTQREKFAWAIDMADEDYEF

[9] = biological target: T1, DNA topoisomerase 1 (Homo sapiens); experiment: Inhibition of recombinant human topoisomerase 1 assessed as relaxation of supercoiled plasmid pBR322 DNA at 100 uM by agarose gel electrophoresis (reference value: […]%)
[10] = biological target: DNA topoisomerase 2-alpha (Homo sapiens) (UniProt P11388); experiment: Inhibition of recombinant human topoisomerase 2alpha assessed as relaxation of supercoiled plasmid pBR322 DNA at 20 uM by agarose gel electrophoresis relative to control
[11] = biological target: T1, DNA topoisomerase 1 (Homo sapiens); experiment: Inhibition of recombinant human topoisomerase 1 assessed as relaxation of supercoiled plasmid pBR322 DNA at 20 uM by agarose gel electrophoresis relative to control
[12] = biological target: DNA topoisomerase 2-alpha (Homo sapiens) (UniProt P11388); experiment: Inhibition of recombinant human topoisomerase 2alpha assessed as relaxation of supercoiled plasmid pBR322 DNA at 100 uM by agarose gel electrophoresis (reference value: 84.9%)
HCT-15 = experiment: Antiproliferative activity against human HCT-15 cells after 72 hrs by EZ-Cytox colorimetric assay; format: functional, cell-based; conditions: HCT-15, 72 h
[13] = Genotoxicity in human HCT-15 cells assessed as production of gamma-H2AX at 0.2 uM and measured by western blot analysis; format: toxicity, cell-based; conditions: hct-15, 0.2 µM
[14] = Genotoxicity in human HCT-15 cells assessed as production of Ub1-gamma-H2AX at 0.2 uM and measured by western blot analysis; format: toxicity, cell-based; conditions: hct-15, 0.2 µM
[15] = Toxicity in mouse assessed as reduction in hemoglobin level at 20 mg/kg; format: organism-based; conditions: in vivo
[16] = Toxicity in mouse assessed as increase in d red cell distribution width at 2 mg/kg; format: organism-based; conditions: in vivo
[17] = Toxicity in mouse assessed as reduction in number of white blood cells at 2 to 20 mg/kg; format: organism-based; conditions: in vivo, dose 2-20 mg/kg
[18] = Toxicity in mouse assessed as reduction in number of red blood cells at 20 mg/kg; format: organism-based; conditions: in vivo
[19] = Toxicity in mouse assessed as reduction in number of red blood cells at 2 mg/kg; format: organism-based; conditions: in vivo
[20] = Genotoxicity in human HCT-15 cells assessed as production of gamma-H2AX at 2 uM and measured by western blot analysis; format: toxicity, cell-based; conditions: hct-15, 2 µM
[21] = Genotoxicity in human HCT-15 cells assessed as production of fragmented DNA tails at 2 uM and measured by comet assay; format: toxicity, cell-based; conditions: hct-15, 2 µM
[22] = Toxicity in mouse assessed as increase in mean corpuscular volume of RBC at 20 mg/kg; format: organism-based, Erythrocyte; conditions: in vivo
[23] = Toxicity in mouse assessed as increase in mean corpuscular volume of RBC at 2 mg/kg; format: organism-based, Erythrocyte; conditions: in vivo
[24] = Toxicity in mouse assessed as reduction in number of absolute neutrophil count at 2 to 20 mg/kg; format: organism-based; conditions: dose 2-20 mg/kg
[25] = Toxicity in mouse assessed as increase in d red cell distribution width at 20 mg/kg; format: organism-based; conditions: in vivo
[26] = Genotoxicity in human HCT-15 cells assessed as production of Ub1-gamma-H2AX at 2 uM and measured by western blot analysis; format: toxicity, cell-based; conditions: hct-15, 2 µM
[27] = Genotoxicity in human HCT-15 cells assessed as production of fragmented DNA tails at 0.2 uM and measured by comet assay; format: toxicity, cell-based; conditions: hct-15, 0.2 µM
[28] = Toxicity in mouse assessed as reduction in hemoglobin level at 2 mg/kg; format: organism-based; conditions: in vivo

For CC[C@@]1(O)C(=O)OCc2c1cc1n(c2=O)Cc2cc3ccccc3nc2-1 [CAMPTOTHECIN], the IC50 (HeLa) was 0.23 µM, the Activity [1] was “Toxic” and the Activity [2] was “Non-Toxic”. For the same compound, the IC50 (DU-145) was 0.21 µM, the Activity [3] was “Non-Toxic” and the IC50 (T47D) was 0.09 µM. The Activity [4] was “Non-Toxic”, the Activity [5] was “Toxic” and the Activity [6] was “Toxic”.

O=C1c2ccccc2-c2nc(-c3ccccc3)cc(-c3ccccc3)c21 gave an inhibition [7] of 2.5%.

O=C1c2ccccc2-c2nc(-c3ccc(O)cc3)cc(-c3ccccc3)c21 gave an inhibition [8] of 0%.

Compound O=C1c2ccccc2-c2nc(-c3ccccc3O)cc(-c3ccccc3)c21 has an inhibition [8] of 0%.

For OC1c2ccccc2-c2nc(-c3ccccc3OC(F)(F)F)cc(-c3ccccc3)c21 (stereo unspecified), the inhibition [9] was 37.4%, the inhibition [10] was 13.8% and the IC50 (HeLa) was 1730 µM. It also gave an inhibition [11] of 1%, an IC50 (DU-145) of 0.71 µM and an inhibition [12] of 86%. For the same compound, the IC50 (T47D) was 1.06 µM and the IC50 (HCT-15) was 7.33 µM.

For COc1cc([C@@H]2c3cc4c(cc3[C@@H](O[C@@H]3O[C@@H]5CO[C@@H](C)O[C@H]5[C@H](O)[C@H]3O)[C@H]3COC(=O)[C@H]23)OCO4)cc(OC)c1O [ETOPOSIDE], the Activity [13] was “Non-Toxic”, the Activity [14] was “Non-Toxic” and the Activity [15] was “Toxic”. The Activity [16] was “Non-Toxic”, the Activity [17] was “Toxic” and the Activity [18] was “Toxic”. The Activity [19] was “Non-Toxic”, the Activity [20] was “Toxic” and the IC50 (HeLa) was 8.09 µM. The Activity [21] was “Toxic”, the Activity [22] was “Toxic” and the Activity [23] was “Non-Toxic”. The IC50 (DU-145) was 4.13 µM, the Activity [24] was “Toxic” and the Activity [25] was “Toxic”. The IC50 (T47D) was 5.58 µM, the Activity [26] was “Toxic” and the Activity [27] was “Non-Toxic”. The Activity [28] was “Non-Toxic” and the IC50 (HCT-15) was 2.38 µM.

Compound OC1c2ccccc2-c2nc(-c3ccccc3)cc(-c3ccccc3)c21 (stereo unspecified) has an inhibition [11] of 0%.
